Data taken from PubChem BioAssay (NCI).
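Cells were grown in 96-well plates and exposed to each compound for 48 hours at five concentrations; endpoints were interpolated linearly between bracketing concentrations, or set to the highest concentration if not reached. TGI denotes the concentration required for complete inhibition of growth.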

Experiments:
Experiment in all cases: DTP human tumour cell line panel, 48 h
PC-3 prostate = tested on: PC-3 prostate
SF-295 CNS = tested on: SF-295 CNS
NCI-H460 lung = tested on: NCI-H460 lung
UACC-62 melanoma = tested on: UACC-62 melanoma
786-0 renal = tested on: 786-0 renal
ACHN renal = tested on: ACHN renal
UACC-257 melanoma = tested on: UACC-257 melanoma
UO-31 renal = tested on: UO-31 renal
DU-145 prostate = tested on: DU-145 prostate
HCT-116 colon = tested on: HCT-116 colon
SN12C renal = tested on: SN12C renal
NCI/ADR-RES ovarian = tested on: NCI/ADR-RES ovarian
SW-620 colon = tested on: SW-620 colon
NCI-H23 lung = tested on: NCI-H23 lung
MDA-N = tested on: MDA-N
BT-549 breast = tested on: BT-549 breast
NCI-H226 lung = tested on: NCI-H226 lung
MDA-MB-435 = tested on: MDA-MB-435
HL-60(TB) leukemia = tested on: HL-60(TB) leukemia
U251 CNS = tested on: U251 CNS
MOLT-4 leukemia = tested on: MOLT-4 leukemia
HS 578T breast = tested on: HS 578T breast
SK-MEL-28 melanoma = tested on: SK-MEL-28 melanoma
OVCAR-5 ovarian = tested on: OVCAR-5 ovarian
SK-OV-3 ovarian = tested on: SK-OV-3 ovarian
SR leukemia = tested on: SR leukemia
M14 melanoma = tested on: M14 melanoma
TK-10 renal = tested on: TK-10 renal
RXF 393 renal = tested on: RXF 393 renal
SF-268 CNS = tested on: SF-268 CNS
SF-539 CNS = tested on: SF-539 CNS
MDA-MB-231 breast = tested on: MDA-MB-231 breast
K-562 leukemia = tested on: K-562 leukemia
IGROV1 ovarian = tested on: IGROV1 ovarian
SK-MEL-2 melanoma = tested on: SK-MEL-2 melanoma
RPMI-8226 leukemia = tested on: RPMI-8226 leukemia
CCRF-CEM leukemia = tested on: CCRF-CEM leukemia
OVCAR-8 ovarian = tested on: OVCAR-8 ovarian
CAKI-1 renal = tested on: CAKI-1 renal
A498 renal = tested on: A498 renal
LOX IMVI melanoma = tested on: LOX IMVI melanoma
SNB-19 CNS = tested on: SNB-19 CNS
HCT-15 colon = tested on: HCT-15 colon
COLO 205 colon = tested on: COLO 205 colon
NCI-H522 lung = tested on: NCI-H522 lung
T-47D breast = tested on: T-47D breast
HOP-62 NSCLC = tested on: HOP-62 NSCLC
HT29 colon = tested on: HT29 colon
OVCAR-4 ovarian = tested on: OVCAR-4 ovarian
HCC-2998 colon = tested on: HCC-2998 colon
MCF7 breast = tested on: MCF7 breast
A549 NSCLC = tested on: A549 NSCLC
SK-MEL-5 melanoma = tested on: SK-MEL-5 melanoma
MALME-3M melanoma = tested on: MALME-3M melanoma
KM12 colon = tested on: KM12 colon
EKVX NSCLC = tested on: EKVX NSCLC
OVCAR-3 ovarian = tested on: OVCAR-3 ovarian
SNB-75 CNS = tested on: SNB-75 CNS
HOP-92 NSCLC = tested on: HOP-92 NSCLC

How did the TGI (PC-3 prostate) turn out when `Cc1c(F)c(NC(=O)CN(C)C)c2c(=O)cc(-c3ccc(NC(=O)CN(C)C)c(F)c3)oc2c1F` was run?
The TGI was 33.8 µM.

And the TGI (SF-295 CNS)?
Its TGI is 28.9 µM.

What about the TGI (NCI-H460 lung) of the same molecule?
The TGI was 29 µM.

And the TGI (UACC-62 melanoma)?
Its TGI is 34.8 µM.

What about the TGI (786-0 renal) of the same molecule?
The TGI was 31.1 µM.

And the TGI (ACHN renal)?
The TGI was 29.6 µM.

And the TGI (UACC-257 melanoma)?
Its TGI is 48.1 µM.

What about the TGI (UO-31 renal) of the same molecule?
The TGI was 26.9 µM.

And the TGI (DU-145 prostate)?
Its TGI is 26.5 µM.

And the TGI (HCT-116 colon)?
Its TGI is 29.3 µM.

What about the TGI (SN12C renal) of the same molecule?
Its TGI is 36.3 µM.

What about the TGI (NCI/ADR-RES ovarian) of the same molecule?
Its TGI is 39.6 µM.

And the TGI (SW-620 colon)?
The TGI was 46.9 µM.

What about the TGI (NCI-H23 lung) of the same molecule?
Its TGI is 36.1 µM.

What about the TGI (MDA-N) of the same molecule?
The TGI was 34 µM.

What about the TGI (BT-549 breast) of the same molecule?
The TGI was 35.3 µM.

What about the TGI (NCI-H226 lung) of the same molecule?
The TGI was 29.2 µM.

What about the TGI (MDA-MB-435) of the same molecule?
Its TGI is 26.5 µM.

What about the TGI (HL-60(TB) leukemia) of the same molecule?
Its TGI is 35.9 µM.

And the TGI (U251 CNS)?
Its TGI is 27.2 µM.

What about the TGI (MOLT-4 leukemia) of the same molecule?
Its TGI is 31.9 µM.

And the TGI (HS 578T breast)?
Its TGI is 56.5 µM.

And the TGI (SK-MEL-28 melanoma)?
Its TGI is 40.9 µM.

And the TGI (OVCAR-5 ovarian)?
Its TGI is 41.1 µM.

What about the TGI (SK-OV-3 ovarian) of the same molecule?
The TGI was 30.5 µM.

And the TGI (SR leukemia)?
The TGI was 6.15 µM.

And the TGI (M14 melanoma)?
Its TGI is 31.7 µM.

And the TGI (TK-10 renal)?
Its TGI is 23.4 µM.

And the TGI (RXF 393 renal)?
Its TGI is 25.6 µM.

What about the TGI (SF-268 CNS) of the same molecule?
Its TGI is 38.3 µM.

What about the TGI (SF-539 CNS) of the same molecule?
The TGI was 31.2 µM.

What about the TGI (MDA-MB-231 breast) of the same molecule?
Its TGI is 26.9 µM.

What about the TGI (K-562 leukemia) of the same molecule?
Its TGI is 37.5 µM.

What about the TGI (IGROV1 ovarian) of the same molecule?
Its TGI is 32.1 µM.

And the TGI (SK-MEL-2 melanoma)?
Its TGI is 37.1 µM.

And the TGI (RPMI-8226 leukemia)?
Its TGI is 38.9 µM.

What about the TGI (CCRF-CEM leukemia) of the same molecule?
Its TGI is 57 µM.

And the TGI (OVCAR-8 ovarian)?
Its TGI is 37.5 µM.

What about the TGI (CAKI-1 renal) of the same molecule?
The TGI was 23.1 µM.

And the TGI (A498 renal)?
Its TGI is 3.64 µM.

What about the TGI (LOX IMVI melanoma) of the same molecule?
Its TGI is 30.9 µM.

And the TGI (SNB-19 CNS)?
Its TGI is 41.2 µM.

And the TGI (HCT-15 colon)?
The TGI was 33.7 µM.

What about the TGI (COLO 205 colon) of the same molecule?
Its TGI is 38 µM.

What about the TGI (NCI-H522 lung) of the same molecule?
The TGI was 41.4 µM.

What about the TGI (T-47D breast) of the same molecule?
The TGI was 55.8 µM.

What about the TGI (HOP-62 NSCLC) of the same molecule?
The TGI was 32.5 µM.

What about the TGI (HT29 colon) of the same molecule?
The TGI was 33.8 µM.

What about the TGI (OVCAR-4 ovarian) of the same molecule?
Its TGI is 37.6 µM.

And the TGI (HCC-2998 colon)?
The TGI was 19 µM.

And the TGI (MCF7 breast)?
The TGI was 28.3 µM.

And the TGI (A549 NSCLC)?
Its TGI is 35.6 µM.

And the TGI (SK-MEL-5 melanoma)?
The TGI was 30.6 µM.

And the TGI (MALME-3M melanoma)?
The TGI was 45.9 µM.

And the TGI (KM12 colon)?
Its TGI is 30.5 µM.

With `CCO/C(Cc1ccc(Cl)cc1)=N/NC(N)=S` as the molecule, how does the TGI (PC-3 prostate) read?
The TGI was greater than 100 µM.

And the TGI (SF-295 CNS)?
Its TGI is greater than 100 µM.

What about the TGI (NCI-H460 lung) of the same molecule?
The TGI was greater than 100 µM.

What about the TGI (UACC-62 melanoma) of the same molecule?
The TGI was greater than 100 µM.

And the TGI (786-0 renal)?
The TGI was greater than 100 µM.

And the TGI (ACHN renal)?
Its TGI is greater than 100 µM.

What about the TGI (UACC-257 melanoma) of the same molecule?
The TGI was greater than 100 µM.

And the TGI (UO-31 renal)?
The TGI was greater than 100 µM.

What about the TGI (DU-145 prostate) of the same molecule?
The TGI was greater than 100 µM.

What about the TGI (HCT-116 colon) of the same molecule?
The TGI was greater than 100 µM.

What about the TGI (EKVX NSCLC) of the same molecule?
Its TGI is greater than 100 µM.

What about the TGI (SN12C renal) of the same molecule?
The TGI was greater than 100 µM.

What about the TGI (NCI/ADR-RES ovarian) of the same molecule?
The TGI was greater than 100 µM.

And the TGI (SW-620 colon)?
Its TGI is greater than 100 µM.

What about the TGI (NCI-H23 lung) of the same molecule?
The TGI was greater than 100 µM.

And the TGI (MDA-N)?
The TGI was greater than 100 µM.

And the TGI (BT-549 breast)?
The TGI was greater than 100 µM.

What about the TGI (NCI-H226 lung) of the same molecule?
Its TGI is greater than 100 µM.

What about the TGI (MDA-MB-435) of the same molecule?
Its TGI is greater than 100 µM.

And the TGI (U251 CNS)?
Its TGI is greater than 100 µM.

And the TGI (MOLT-4 leukemia)?
The TGI was greater than 100 µM.

What about the TGI (HS 578T breast) of the same molecule?
The TGI was greater than 100 µM.

What about the TGI (SK-MEL-28 melanoma) of the same molecule?
The TGI was greater than 100 µM.

And the TGI (OVCAR-5 ovarian)?
Its TGI is greater than 100 µM.

And the TGI (SK-OV-3 ovarian)?
Its TGI is greater than 100 µM.

What about the TGI (SR leukemia) of the same molecule?
The TGI was greater than 100 µM.

And the TGI (M14 melanoma)?
Its TGI is greater than 100 µM.

And the TGI (TK-10 renal)?
Its TGI is greater than 100 µM.

What about the TGI (SF-539 CNS) of the same molecule?
Its TGI is greater than 100 µM.

What about the TGI (MDA-MB-231 breast) of the same molecule?
Its TGI is greater than 100 µM.

And the TGI (K-562 leukemia)?
Its TGI is greater than 100 µM.

What about the TGI (IGROV1 ovarian) of the same molecule?
The TGI was greater than 100 µM.

And the TGI (SK-MEL-2 melanoma)?
Its TGI is greater than 100 µM.

And the TGI (CCRF-CEM leukemia)?
Its TGI is greater than 100 µM.

What about the TGI (OVCAR-8 ovarian) of the same molecule?
The TGI was greater than 100 µM.

And the TGI (CAKI-1 renal)?
The TGI was greater than 100 µM.

And the TGI (A498 renal)?
Its TGI is greater than 100 µM.

And the TGI (LOX IMVI melanoma)?
The TGI was greater than 100 µM.

And the TGI (OVCAR-3 ovarian)?
The TGI was greater than 100 µM.

What about the TGI (SNB-19 CNS) of the same molecule?
The TGI was greater than 100 µM.

What about the TGI (SNB-75 CNS) of the same molecule?
The TGI was greater than 100 µM.

What about the TGI (HCT-15 colon) of the same molecule?
Its TGI is greater than 100 µM.

And the TGI (COLO 205 colon)?
The TGI was greater than 100 µM.

And the TGI (T-47D breast)?
Its TGI is greater than 100 µM.

And the TGI (HOP-62 NSCLC)?
The TGI was greater than 100 µM.

And the TGI (HOP-92 NSCLC)?
Its TGI is greater than 100 µM.

What about the TGI (HT29 colon) of the same molecule?
Its TGI is greater than 100 µM.

What about the TGI (OVCAR-4 ovarian) of the same molecule?
The TGI was greater than 100 µM.

What about the TGI (HCC-2998 colon) of the same molecule?
The TGI was greater than 100 µM.

And the TGI (MCF7 breast)?
Its TGI is greater than 100 µM.

And the TGI (A549 NSCLC)?
Its TGI is greater than 100 µM.

And the TGI (SK-MEL-5 melanoma)?
The TGI was greater than 100 µM.

What about the TGI (MALME-3M melanoma) of the same molecule?
Its TGI is greater than 100 µM.

What about the TGI (KM12 colon) of the same molecule?
Its TGI is greater than 100 µM.
